Assay results taken from BigSolDB 2.1.

CCO.C[C@H]1c2cccc(O)c2C(O)=C2C(=O)[C@]3(O)C(O)=C(C(N)=O)C(=O)[C@@H](N(C)C)[C@@H]3[C@@H](O)[C@@H]21.C[C@H]1c2cccc(O)c2C(O)=C2C(=O)[C@]3(O)C(O)=C(C(N)=O)C(=O)[C@@H](N(C)C)[C@@H]3[C@@H](O)[C@@H]21.Cl.Cl.O
Conditions | solubility (mole fraction)
in ethanol, 278.15 K | 0.00199
in ethanol, 283.15 K | 0.00222
in ethanol, 288.15 K | 0.00248
in ethanol, 293.15 K | 0.00278
in ethanol, 298.15 K | 0.00313
in ethanol, 302.85 K | 0.00327
in ethanol, 307.25 K | 0.00364
in ethanol, 312.95 K | 0.00409
in ethanol, 318.15 K | 0.0047
in ethanol, 323.05 K | 0.00522
in methanol, 278.15 K | 0.0138
in methanol, 283.15 K | 0.015
in methanol, 288.15 K | 0.016
in methanol, 293.15 K | 0.0174
in methanol, 298.15 K | 0.0198
in methanol, 302.85 K | 0.0251
in methanol, 307.25 K | 0.0292
in methanol, 312.95 K | 0.0332
in methanol, 318.15 K | 0.0402
in methanol, 323.05 K | 0.044
in n-propanol, 278.15 K | 0.000862
in n-propanol, 283.15 K | 0.00101
in n-propanol, 288.15 K | 0.00111
in n-propanol, 293.15 K | 0.00133
in n-propanol, 298.15 K | 0.00151
in n-propanol, 303.15 K | 0.00174
in n-propanol, 309.75 K | 0.00222
in n-propanol, 316.65 K | 0.00273
in n-propanol, 322.55 K | 0.00351
in water, 277.55 K | 0.00128
in water, 283.05 K | 0.00132
in water, 287.85 K | 0.0014
in water, 292.95 K | 0.00164
in water, 299.15 K | 0.00214
in water, 302.35 K | 0.00254
in water, 307.45 K | 0.00306
in water, 313.25 K | 0.00405
in water, 317.85 K | 0.00534
in water, 323.05 K | 0.00647
